# Results as given in patent US7141648B2, “Synthesis of cyclosporin analogs” (priority 2001, dated 2006).
# Where two headings read alike, the source gives them in different places.
# Key:
# [1] = system: Male DBA/1 Lac J mice immunized with chick type II collagen; assay: collagen-induced arthritis model in the mouse; type: in vivo; conditions: for negative erosion scores compared to vehicle treatment group: PIP joint
# Procedure: Male DBA/1 Lac J mice, kept under virus antibody free conditions, were immunized subcutaneously at 8 to 10 weeks of age with 100 microgram of chick type II collagen, emulsified in Freund's complete adjuvant. […] Animals assigned to the treatment protocol (12/group) were dosed starting on the day of disease onset (˜Day 28) until sacrifice on Day 38.
# Evaluated parameters included mortality, serum creatinine, histology, and outcome assessments, such as clinical scoring (visual), hind paw swelling, histological scoring, erosion scoring, and immunohistochemistry.
# Erosion scoring was done in a blinded manner by examining sagittal sections of the proximal interphalangeal (PIP) joint of the middle digit for the presence or absence of erosions (defined as demarcated defects in cartilage or bone filled with inflammatory tissue). This approach allowed for comparisons of the same joint.
# [2] = system: hearts transplanted from Wistar Furth rats to Lewis rats; assay: rat heart transplant model; type: in vivo
# From the text: If graft dysfunction was noted during the 30-day post-transplantation period, the animal was sacrificed. If the animal survived longer than 30 days post-transplantation, the test and control articles were discontinued and the animal was allowed to continue until graft dysfunction or up to 100 days post-transplantation.
# [3] = system: New Zealand White rabbits immunized with ovalbumin; assay: antigen-induced arthritis model in the rabbit; type: in vivo
# Procedure: New Zealand White rabbits, maintained under specific pathogen free conditions, were immunized with 10 mg of ovalbumin in saline emulsified with Freund's complete adjuvant that was given intramuscularly and subcutaneously into several sites in the nape of the neck. Fourteen days later, all animals started receiving 2 daily intra-articular injections of 5 mg ovalbumin and 65 ng of human recombinant transforming growth factor 2 in saline.
# Animals assigned to the treatment protocol (8/group) were dosed starting on the day of disease onset (˜Day 28) until sacrifice on Day 42.
# Evaluated parameters included mortality, body weight, serum creatinine, histology, and outcome assessments such as knee joint swelling, synovial fluid counts, gross postmortem analysis, and histology.
# rabbits = assay: toxicokinetic/nephrotoxicity study in the rabbit model, 30 days
# Procedure: (§1) On Days 1 and 7, blood samples were collected prior to drug administration and at 0.5, 1, 2, 4, 8, 12, 18, and 24 hours post-dose to generate a pharmacokinetic profile. Other evaluated parameters included clinical observations, body weight, food consumption, hematology, clinical chemistry, gross pathology, and histopathological examination of selected tissues/organs.
# [4] = system: islets from a CBA/J mouse transplanted into diabetic Balb/c mouse recipients; assay: islet cell allotransplantation mouse model; conditions: especially apparent at 25 mg/kg/day
# From the text: Blood glucose was monitored daily until the time of graft failure, as defined by a glucose level greater than 17 mmol/L on two consecutive days.
# rats, dogs, and primates = assay: repeated-dose oral toxicity studies; type: in vivo
# [5] = for Area under the curve / Cmax: male rabbits, i.v. 10 mg/kg/day, mean ± SD
# Procedure: as §1
# Blood samples were analyzed via high performance liquid chromatography coupled with mass spectrometry (LCMS).
structure (smiles),measurement,setting,value
C=C/C=C/C[C@@H](C)[C@@H](O)[C@H]1C(=O)N[C@@H](CC)C(=O)N(C)CC(=O)N(C)[C@@H](CC(C)C)C(=O)N[C@@H](C(C)C)C(=O)N(C)[C@@H](CC(C)C)C(=O)N[C@@H](C)C(=O)N[C@H](C)C(=O)N(C)[C@@H](CC(C)C)C(=O)N(C)[C@@H](CC(C)C)C(=O)N(C)[C@@H](C(C)C)C(=O)N1C [ISATX247],negative erosion scores compared to vehicle treatment group,[1]; 250 μg/mouse i.p. daily,higher negative erosion scores
same,prevention of the development of joint erosions,[1]; 500 μg/mouse,significantly prevent the development of joint erosions
same,negative erosion scores compared to vehicle treatment group,[1]; 500 μg/mouse i.p. daily,significantly higher
same,graft function after discontinuation of dosing,"[2]; 100 days post-transplant (70 days post discontinuation of dosing), a number of animals",still had functioning grafts at 100 days post-transplant
same,increase of survival time over Cyclosporine A,[2]; optimal dose of 1.75 mg/kg/day,approximately 3 fold
same,synovial fluid counts,[3]; prevention protocol,significant reductions
same,synovial histopathological scores compared to vehicle control,"[3]; prevention protocol, after 28 days of therapy, s.c.",significant decrease
same,potency compared to cyclosporine A in treatment and prevention of arthritis,"[3]; rabbit, in vivo",equivalent or potentially more potent than cyclosporine A
same,macroscopic arthritis score,[3]; treatment protocol,significant reduction
same,synovial histopathological scores of animals with established arthritis compared to vehicle controls,"[3]; treatment protocol, 14 days of treatment",Significant amelioration
same,"examination of organs, female rabbits","rabbits; 15 mg/kg, 3 female rabbits that completed the study",No changes
same,"examination of organs, male rabbits","rabbits; 15 mg/kg, male rabbits",decrease in spermatogenesis
same,Percent Change in Serum Creatinine Levels Over Baseline,"rabbits; male rabbits, 10 mg/kg, Day 15",+1%
same,Percent Change in Serum Creatinine Levels Over Baseline,"rabbits; male rabbits, 10 mg/kg, Day 30",+10%
same,Percent Change in Serum Creatinine Levels Over Baseline,"rabbits; male rabbits, 15 mg/kg, Day 15",−19%
same,Percent Change in Serum Creatinine Levels Over Baseline,"rabbits; male rabbits, 15 mg/kg, Day 30",−11%
same,hematological parameters,rabbits; rabbits,No significant changes
same,toxicity compared to cyclosporine A as the dose level increased,[4],less toxic than cyclosporine A
same,only toxicological effect noted in all species,"rats, dogs, and primates",diarrhea/loose feces
same,tolerability,"rats, dogs, and primates",well-tolerated
same,pharmacokinetic parameters in female rabbits compared with male rabbits,"[5]; female rabbits, 10 mg/kg/day, exception: maximum concentration on Day 7",not significantly different
same,Area under the curve,[5]; Day 1,5659 ± 1309 ng·h/mL
same,Cmax,[5]; Day 1,1915 ± 149 ng/mL
same,Area under the curve,[5]; Day 7,5697 ± 1373 ng·h/mL
same,Cmax,[5]; Day 7,1959 ± 470 ng/mL
